Measurements reported in the supplement of paper PMC10331698.
± gives the standard deviation of the averaged measurements.

Columns and labels:
Assay in all cases: level (log10 ratio to DMSO vehicle control); higher = higher biomarker level / cell amount than vehicle control
[1] = compound: C=C(C)C(=O)OCCC(F)(F)C(F)(F)C(F)(F)C(F)(F)C(F)(F)C(F)(F)F [6:2 Fluorotelomer methacrylate]; settings: in DMSO
Experimental: (§1)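 BioMAP Diversity Plus panel of 12 human primary cell co-culture systems (3C, 4H, LPS, SAg, BT, BF4T, BE3C, CASM3C, HDF3CGF, KF3CT, MyoF, Mphg). Compounds were added 1 h before stimulation and left for 24 h (MyoF 48 h; BT 72 h for soluble read-outs or 6 d for IgG). Biomarkers were read by ELISA, cytotoxicity by SRB, PBMC viability and proliferation by Alamar Blue. Each well value was divided by the mean of 8 DMSO control wells on the same plate and log10 transformed; duplicate blinded samples were tested at 4 concentrations.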

[2] = compound: C=CC(=O)OCC(F)(F)C(F)(F)C(F)(F)COC(=O)C=C [1H,1H,5H,5H-Perfluoro-1,5-pentanediol diacrylate]; settings: 6700 nM; in DMSO
Experimental: as §1

[3] = compound: COC(=O)C(F)(F)C(F)(F)OC(F)(C(F)(F)F)C(F)(F)OC(F)=C(F)F [Methyl perfluoro(3-(1-ethenyloxypropan-2-yloxy)propanoate)]; settings: in DMSO
Experimental: as §1

[4] = compound: FC(F)(F)C(F)(F)C(F)(F)C(F)(F)C(F)(F)C(F)(F)C(F)(F)I [1-Iodopentadecafluoroheptane]; settings: in DMSO
Experimental: as §1

[5] = compound: FC(F)(F)C(F)(F)C(F)(F)C(F)(F)C(F)(F)C(F)(F)CC1CO1 [3-(Perfluorohexyl)-1,2-epoxypropane]; settings: in DMSO
Experimental: as §1

[6] = compound: FC(F)(F)C(F)(F)C(F)(F)CC1CO1 [1H,1H-Heptafluorobutyl epoxide]; settings: in DMSO
Experimental: as §1

Heptafluorobutyl iodide = compound: FC(F)(F)C(F)(F)C(F)(F)CI [Heptafluorobutyl iodide]; settings: in DMSO
Experimental: as §1

[7] = compound: FC(F)(F)C(F)(F)CNCC(F)(F)C(F)(F)F [Bis(1H,1H-perfluoropropyl)amine]; settings: in DMSO
Experimental: as §1

Octafluoroadipamide = compound: NC(=O)C(F)(F)C(F)(F)C(F)(F)C(F)(F)C(N)=O [Octafluoroadipamide]; settings: in DMSO
Experimental: as §1

Nonafluoropentanamide = compound: NC(=O)C(F)(F)C(F)(F)C(F)(F)C(F)(F)F [Nonafluoropentanamide]; settings: in DMSO
Experimental: as §1

[8] = compound: NC(=O)C(F)(F)C(F)(F)C(F)(F)C(F)F; settings: in DMSO
Experimental: as §1

[9] = compound: NS(=O)(=O)C(F)(F)C(F)(F)C(F)(F)C(F)(F)C(F)(F)C(F)(F)F [Perfluorohexanesulfonamide]; settings: in DMSO
Experimental: as §1

[10] = compound: O=C(O)C(F)(F)C(F)(F)C(F)(F)C(F)(F)C(F)(F)C(F)(F)C(F)(F)C(F)(F)C(F)(F)C(F)F [11-H-Perfluoroundecanoic acid]; settings: in DMSO
Experimental: as §1

[11] = compound: O=C(O)C=CC(F)(C(F)(F)F)C(F)(F)F [3-(Perfluoroisopropyl)-2-propenoic acid]; settings: in DMSO
Experimental: as §1

[12] = compound: O=S(=O)(Cl)C(F)(F)C(F)(F)C(F)(F)C(F)(F)C(F)(F)C(F)(F)C(F)(F)C(F)(F)F [Perfluoro-1-octanesulfonyl chloride]; settings: in DMSO
Experimental: as §1

[13] = compound: O=S(=O)(F)C(F)(F)C(F)(F)C(F)(F)C(F)(F)C(F)(F)C(F)(F)C(F)(F)C(F)(F)F [Perfluorooctanesulfonyl fluoride]; settings: in DMSO
Experimental: as §1

[14] = compound: O=S(=O)(O)C(F)(F)C(F)(F)C(F)(F)C(F)(F)C(F)(F)C(F)(F)C(F)(F)C(F)(F)C(F)(F)C(F)(F)F [Sodium perfluorodecanesulfonate]; settings: in DMSO
Experimental: as §1

[15] = compound: O=S(=O)(O)CCC(F)(F)C(F)(F)C(F)(F)C(F)(F)C(F)(F)C(F)(F)F [6:2 Fluorotelomer sulfonic acid]; settings: in DMSO
Experimental: as §1

Hexafluoroamylene glycol = compound: OCC(F)(F)C(F)(F)C(F)(F)CO [Hexafluoroamylene glycol]; settings: in DMSO
Experimental: as §1

LPS:CD69
level (log10) ([1]; 6700 nM): -0.0355 ± 0.019 | level (log10) ([1]; 20000 nM): -0.0095 ± 0.026 | level (log10) ([1]; 60000 nM): 0.0175 ± 0.053 | level (log10) [2]: -0.0365 ± 0.036 | level (log10) ([3]; 6700 nM): -0.0435 ± 0.0078 | level (log10) ([3]; 20000 nM): -0.053 ± 0.013 | level (log10) ([4]; 6700 nM): -0.0105 ± 0.033 | level (log10) ([4]; 20000 nM): 0.037 ± 0.0057 | level (log10) ([5]; 6700 nM): -0.024 ± 0.013 | level (log10) ([5]; 20000 nM): -0.0225 ± 0.015 | level (log10) ([5]; 60000 nM): -0.0195 ± 0.0078 | level (log10) ([6]; 6700 nM): -0.012 ± 0.031 | level (log10) ([6]; 20000 nM): -0.0365 ± 0.029 | level (log10) ([6]; 60000 nM): 0.0095 ± 0.018 | level (log10) (Heptafluorobutyl iodide; 6700 nM): -0.0635 ± 0.011 | level (log10) (Heptafluorobutyl iodide; 20000 nM): -0.054 ± 0.013 | level (log10) (Heptafluorobutyl iodide; 60000 nM): -0.021 ± 0.048 | level (log10) ([7]; 6700 nM): 0.016 ± 0.028 | level (log10) ([7]; 20000 nM): 0.0075 ± 0.053 | level (log10) ([7]; 60000 nM): 0.03 ± 0.09 | level (log10) (Octafluoroadipamide; 6700 nM): 0.011 ± 0.1 | level (log10) (Octafluoroadipamide; 20000 nM): 0.033 ± 0.052 | level (log10) (Octafluoroadipamide; 60000 nM): 0.082 ± 0.024 | level (log10) (Nonafluoropentanamide; 6700 nM): -0.0545 ± 0.046 | level (log10) (Nonafluoropentanamide; 20000 nM): -0.042 ± 0.05 | level (log10) (Nonafluoropentanamide; 60000 nM): -0.001 ± 0.025 | level (log10) ([8]; 6700 nM): 0.006 ± 0.027 | level (log10) ([8]; 20000 nM): 0.021 ± 0.035 | level (log10) ([8]; 60000 nM): 0.0225 ± 0.061 | level (log10) ([9]; 6700 nM): -0.009 ± 0.013 | level (log10) ([9]; 20000 nM): -0.061 ± 0.016 | level (log10) ([9]; 60000 nM): -0.169 ± 0.005 | level (log10) ([10]; 6700 nM): -0.024 | level (log10) ([10]; 20000 nM): -0.057 | level (log10) ([11]; 6700 nM): -0.0365 ± 0.025 | level (log10) ([11]; 20000 nM): -0.0375 ± 0.00071 | level (log10) ([11]; 60000 nM): -0.0255 ± 0.023 | level (log10) ([12]; 6700 nM): -0.0255 ± 0.069 | level (log10) ([12]; 20000 nM): -0.032 ± 0.0071 | level (log10) ([12]; 60000 nM): -0.047 ± 0.052 | level (log10) ([13]; 6700 nM): -0.019 ± 0.031 | level (log10) ([13]; 20000 nM): -0.0135 ± 0.0092 | level (log10) ([13]; 60000 nM): -0.0335 ± 0.011 | level (log10) ([14]; 1500 nM): -0.028 ± 0.021 | level (log10) ([14]; 4400 nM): -0.045 ± 0.011 | level (log10) ([14]; 13000 nM): -0.0585 ± 0.00071 | level (log10) ([14]; 40000 nM): -0.16 ± 0.054 | level (log10) ([15]; 6700 nM): -0.0315 ± 0.037 | level (log10) ([15]; 20000 nM): -0.033 ± 0.055 | level (log10) ([15]; 60000 nM): -0.111 ± 0.057 | level (log10) (Hexafluoroamylene glycol; 6700 nM): -0.028 ± 0.085 | level (log10) (Hexafluoroamylene glycol; 20000 nM): -0.038 ± 0.03 | level (log10) (Hexafluoroamylene glycol; 60000 nM): -0.041 ± 0.067

LPS:CD142/Tissue Factor
level (log10) ([1]; 6700 nM): 0.007 ± 0.09 | level (log10) ([1]; 20000 nM): 0.0765 ± 0.043 | level (log10) ([1]; 60000 nM): 0.0165 ± 0.098 | level (log10) [2]: -0.107 ± 0.03 | level (log10) ([3]; 6700 nM): -0.0235 ± 0.00071 | level (log10) ([3]; 20000 nM): 0.009 ± 0.011 | level (log10) ([4]; 6700 nM): 0.0105 ± 0.07 | level (log10) ([4]; 20000 nM): 0.036 ± 0.02 | level (log10) ([5]; 6700 nM): -0.023 ± 0.0057 | level (log10) ([5]; 20000 nM): -0.0095 ± 0.032 | level (log10) ([5]; 60000 nM): 0.0015 ± 0.039 | level (log10) ([6]; 6700 nM): 0.011 ± 0.014 | level (log10) ([6]; 20000 nM): 0.0085 ± 0.018 | level (log10) ([6]; 60000 nM): 0.015 ± 0.0085 | level (log10) (Heptafluorobutyl iodide; 6700 nM): -0.046 ± 0.1 | level (log10) (Heptafluorobutyl iodide; 20000 nM): -0.013 ± 0.082 | level (log10) (Heptafluorobutyl iodide; 60000 nM): 0.0295 ± 0.043 | level (log10) ([7]; 6700 nM): 0.019 ± 0.073 | level (log10) ([7]; 20000 nM): -0.007 ± 0.099 | level (log10) ([7]; 60000 nM): 0.0095 ± 0.13 | level (log10) (Octafluoroadipamide; 6700 nM): -0.0225 ± 0.077 | level (log10) (Octafluoroadipamide; 20000 nM): -0.004 ± 0.025 | level (log10) (Octafluoroadipamide; 60000 nM): 0.057 ± 0.025 | level (log10) (Nonafluoropentanamide; 6700 nM): 0.0085 ± 0.019 | level (log10) (Nonafluoropentanamide; 20000 nM): 0.0165 ± 0.0078 | level (log10) (Nonafluoropentanamide; 60000 nM): -0.013 ± 0.017 | level (log10) ([8]; 6700 nM): -0.0215 ± 0.00071 | level (log10) ([8]; 20000 nM): 0.005 ± 0.0028 | level (log10) ([8]; 60000 nM): -0.007 ± 0.0014 | level (log10) ([9]; 6700 nM): 0.0095 ± 0.025 | level (log10) ([9]; 20000 nM): 0.012 ± 0.0085 | level (log10) ([9]; 60000 nM): 0.022 ± 0.0071 | level (log10) ([10]; 6700 nM): 0.012 ± 0.034 | level (log10) ([10]; 20000 nM): -0.033 ± 0.041 | level (log10) ([11]; 6700 nM): 0.0105 ± 0.0078 | level (log10) ([11]; 20000 nM): -0.021 ± 0.025 | level (log10) ([11]; 60000 nM): 0.006 ± 0.021 | level (log10) ([12]; 6700 nM): -0.023 ± 0.055 | level (log10) ([12]; 20000 nM): 0.0075 ± 0.0078 | level (log10) ([12]; 60000 nM): 0.11 ± 0.0092 | level (log10) ([13]; 6700 nM): -0.0015 ± 0.0064 | level (log10) ([13]; 20000 nM): 0.018 ± 0.011 | level (log10) ([13]; 60000 nM): -0.0065 ± 0.019 | level (log10) ([14]; 1500 nM): -0.0155 ± 0.043 | level (log10) ([14]; 4400 nM): -0.011 ± 0.021 | level (log10) ([14]; 13000 nM): -0.06 ± 0.0042 | level (log10) ([14]; 40000 nM): -0.177 ± 0.1 | level (log10) ([15]; 6700 nM): -0.0015 ± 0.064 | level (log10) ([15]; 20000 nM): 0.02 ± 0.0085 | level (log10) ([15]; 60000 nM): 0.0275 ± 0.026 | level (log10) (Hexafluoroamylene glycol; 6700 nM): 0.0025 ± 0.087 | level (log10) (Hexafluoroamylene glycol; 20000 nM): 0.041 ± 0.081 | level (log10) (Hexafluoroamylene glycol; 60000 nM): 0.021 ± 0.082
